US7253158B2, “Sulfonamides” (Hoffmann-La Roche Inc., priority 2004, dated 2007)

Target: T1, γ-secretase (Homo sapiens, UniProt P49768)
T1 construct: uses a HEK293 membrane fraction as a source of γ-secretase; endogenous in cells; host or cells: HEK293 (microsomal membrane fraction, solubilised in 0.25% CHAPSO)
Assay: in vitro γ-secretase assay (HEK293 membrane fraction, recombinant APP substrate, Abeta ELISA)
Type: biochemical
Details: γ-secretase inhibition
Excerpt: Description of γ-Secretase Assay
The activity of test compounds can be evaluated in assays which measure the proteolytic cleavage of suitable substrates by γ-secretase activity. These can be cellular assays where e.g., a substrate of the γ-secretase is fused in its cytoplasmic domain to a transcription factor. Cells are transfected with this fusion gene and a reporter gene, e.g., firefly luciferase, which expression is enhanced by the transcription factor. Cleavage of the fused substrate by γ-secretase will lead to expression of the reporter gene which can be monitored in appropriate assays. The γ-secretase activity can also be determined in cell-free in vitro asays where e.g., a cell lysate containing the γ-secretase complex is incubated with a suitable APP-derived substrate which is cleaved to the Abeta peptides. The amount of produced peptides can be determined with specific ELISA assays. Cell lines of neuronal origin secrete Abeta peptides which can be measured with the specific ELISA assay. Treatment with compounds which inhibit γ-secretase leads to a reduction of secreted Abeta thus providing a measure of inhibition.
The in vitro assay of γ-secretase activity uses a HEK293 membrane fraction as a source of γ-secretase and a recombinant APP substrate. Latter consist of the C-terminal 100 amino acids of human APP fused to a 6× Histidin tail for purification which is expressed in E. coli in a regulatable expression vector, e.g. pEt15. This recombinant protein corresponds to the truncated APP fragment which results after […] of the extracellular domain and which constitutes the γ-secretase substrate. […] Hek293 cells are mechanically disrupted and the microsomal fraction is isolated by differential centrifugation.

Compound | IC50 (table head prints none) | IC50
COc1ccc(CN(C2CC(C(C)C)CCNC2=O)S(=O)(=O)c2ccc(Cl)cc2)cc1 (stereo not drawn) [Example 111, 4-Chloro-N-(5-isopropyl-2-oxo-azepan-3-yl)-N-(4-methoxy-benzyl)-benzenesulfonamide] | 0.008 µM | 
O=C(NC1CC1)c1ccc(CN(C2CC(C(F)(F)F)CCNC2=O)S(=O)(=O)c2ccc(Cl)cc2)cc1 (stereo not drawn) [Example 115, 4-{[(4-Chloro-benzenesulfonyl)-(2-oxo-5-trifluoromethyl-azepan-3-yl)-amino]-methyl}-N-cyclopropyl-benzamide] | 0.03 µM | 
COc1ccc(CN(C2CC(C(C)C)CCNC2=O)S(=O)(=O)c2ccc(Cl)cc2)c(F)c1 (stereo not drawn) [Example 116, 4-Chloro-N-(2-fluoro-4-methoxy-benzyl)-N-(5-isopropyl-2-oxo-azepan-3-yl)-benzenesulfonamide] | 0.14 µM | 
CC1(C)CCNC(=O)C(N(Cc2ccc(C(=O)O)cc2)S(=O)(=O)c2ccc(Cl)cc2)C1 (stereo not drawn) [Example 139, 4-{[(4-Chloro-benzenesulfonyl)-(5,5-dimethyl-2-oxo-azepan-3-yl)-amino]-methyl}-benzoic acid] | 0.07 µM | 
COc1ccc(CN([C@@H]2CCCCNC2=O)S(=O)(=O)c2ccc(C(F)(F)F)cc2)c(F)c1F [Example 166, N-(2,3-Difluoro-4-methoxy-benzyl)-N-((R)-2-oxo-azepan-3-yl)-4-trifluoromethyl-benzenesulfonamide] | 0.23 µM | 
Cc1nnc(-c2ccc(CN(C3CC(C(C)C)CCNC3=O)S(=O)(=O)c3ccc(Cl)cc3)cc2)o1 (stereo not drawn) [Example 180, 4-Chloro-N-(5-isopropyl-2-oxo-azepan-3-yl)-N-[4-(5-methyl-[1,3,4]oxadiazol-2-yl)-benzyl]-benzenesulfonamide] | 0.14 µM | 
Cc1noc(-c2ccc(CN(C3CC(C(C)C)CCNC3=O)S(=O)(=O)c3ccc(Cl)cc3)cc2)n1 (stereo not drawn) [Example 181, 4-Chloro-N-(5-isopropyl-2-oxo-azepan-3-yl)-N-[4-(3-methyl-[1,2,4]oxadiazol-5-yl)-benzyl]-benzenesulfonamide] | 0.27 µM | 
CC1(C)CCNC(=O)[C@H](N(Cc2ccc(C(=O)NC3CC3)cc2)S(=O)(=O)c2ccc(Cl)cc2)C1 [Example 183, 4-{[(4-Chloro-benzenesulfonyl)-((R)-5,5-dimethyl-2-oxo-azepan-3-yl)-amino]-methyl}-N-cyclopropyl-benzamide] | 0.01 µM | 
COC(=O)c1ccc(CN([C@@H]2CC(C)(C)CCNC2=O)S(=O)(=O)c2ccc(Cl)cc2)c(F)c1 [Example 185, 4-{[(4-Chloro-benzenesulfonyl)-((R)-5,5-dimethyl-2-oxo-azepan-3-yl)-amino]-methyl}-3-fluoro-benzoic acid methyl ester] | 0.01 µM | 
COC(=O)CCc1ccc(CN([C@@H]2CC(C)(C)CCNC2=O)S(=O)(=O)c2ccc(Cl)cc2)cc1 [Example 186, 3-(4-{[(4-Chloro-benzenesulfonyl)-((R)-5,5-dimethyl-2-oxo-azepan-3-yl)-amino]-methyl}-phenyl)-propionic acid methyl ester] | 0.13 µM | 
CC1(C)CCNC(=O)[C@H](N(Cc2ccc(CCC(=O)O)cc2)S(=O)(=O)c2ccc(Cl)cc2)C1 [Example 187, 3-(4-{[(4-Chloro-benzenesulfonyl)-((R)-5,5-dimethyl-2-oxo-azepan-3-yl)-amino]-methyl}-phenyl)-propionic acid] | 0.01 µM | 
CC1(C)CCNC(=O)[C@H](N(Cc2ccc(C(=O)O)cc2F)S(=O)(=O)c2ccc(Cl)cc2)C1 [Example 188, 4-{[(4-Chloro-benzenesulfonyl)-((R)-5,5-dimethyl-2-oxo-azepan-3-yl)-amino]-methyl}-3-fluoro-benzoic acid] | 0.03 µM | 
CN(C)NC(=O)c1ccc(CN([C@@H]2CC(C)(C)CCNC2=O)S(=O)(=O)c2ccc(Cl)cc2)c(F)c1 [Example 189, 4-Chloro-N-[4-(N′,N′-dimethyl-hydrazinocarbonyl)-2-fluoro-benzyl]-N-((R)-5,5-dimethyl-2-oxo-azepan-3-yl)-benzenesulfonamide] | 0.02 µM | 
CC1(C)CCNC(=O)[C@H](N(Cc2ccc(-c3ccno3)cc2)S(=O)(=O)c2ccc(Cl)cc2)C1 [Example 191, 4-Chloro-N-((R)-5,5-dimethyl-2-oxo-azepan-3-yl)-N-(4-isoxazol-5-yl-benzyl)-benzenesulfonamide] | 0.06 µM | 
COc1ccc(CN([C@@H]2CC(C)(C)CCNC2=O)S(=O)(=O)c2ccc(Cl)cc2)c(F)c1 [Example 192, 4-Chloro-N-((R)-5,5-dimethyl-2-oxo-azepan-3-yl)-N-(2-fluoro-4-methoxy-benzyl)-benzenesulfonamide] | 0.04 µM | 
CC1(C)CCNC(=O)[C@H](N(Cc2ccc(CO)cc2F)S(=O)(=O)c2ccc(Cl)cc2)C1 [Example 193, 4-Chloro-N-((R)-5,5-dimethyl-2-oxo-azepan-3-yl)-N-(2-fluoro-4-hydroxymethyl-benzyl)-benzenesulfonamide] | 0.02 µM | 
O=C(O)CCc1ccc(CN(C2CC(C(F)(F)F)CCNC2=O)S(=O)(=O)c2ccc(Cl)cc2)cc1 (stereo not drawn) [Example 194, 3-(4-{[(4-Chloro-benzenesulfonyl)-(2-oxo-5-trifluoromethyl-azepan-3-yl)-amino]-methyl}-phenyl)-propionic acid] | 0.13 µM | 
O=C(O)c1ccc(CN(C2CC(C(F)(F)F)CCNC2=O)S(=O)(=O)c2ccc(Cl)cc2)cc1 (stereo not drawn) [Example 195, 4-{[(4-Chloro-benzenesulfonyl)-(2-oxo-5-trifluoromethyl-azepan-3-yl)-amino]-methyl}-benzoic acid] | 0.03 µM | 
CN(C)NC(=O)c1ccc(CN(C2CC(C(F)(F)F)CCNC2=O)S(=O)(=O)c2ccc(Cl)cc2)cc1 (stereo not drawn) [Example 196, 4-Chloro-N-[4-(N′,N′-dimethyl-hydrazinocarbonyl)-benzyl]-N-(2-oxo-5-trifluoromethyl-azepan-3-yl)-benzenesulfonamide] | 0.19 µM | 
COC(=O)c1ccc(CN(C2CC(C(F)(F)F)CCNC2=O)S(=O)(=O)c2ccc(Cl)cc2)c(F)c1 (stereo not drawn) [Example 197, 4-{[(4-Chloro-benzenesulfonyl)-(2-oxo-5-trifluoromethyl-azepan-3-yl)-amino]-methyl}-3-fluoro-benzoic acid methyl ester] | 0.02 µM | 
COc1ccc(CN(C2CC(C(F)(F)F)CCNC2=O)S(=O)(=O)c2ccc(Cl)cc2)c(F)c1 (stereo not drawn) [Example 198, 4-Chloro-N-(2-fluoro-4-methoxy-benzyl)-N-(2-oxo-5-trifluoromethyl-azepan-3-yl)-benzenesulfonamide] |  | 0.29 µM
O=C(O)c1ccc(CN(C2CC(C(F)(F)F)CCNC2=O)S(=O)(=O)c2ccc(Cl)cc2)c(F)c1 (stereo not drawn) [Example 199, 4-{[(4-Chloro-benzenesulfonyl)-(2-oxo-5-trifluoromethyl-azepan-3-yl)-amino]-methyl}-3-fluoro-benzoic acid] |  | 0.02 µM
O=C(O)CCc1ccc(CN([C@@H]2CCCCNC2=O)S(=O)(=O)c2ccc(Cl)cc2)cc1 [Example 201, 3-(4-{[(4-Chloro-benzenesulfonyl)-((R)-2-oxo-azepan-3-yl)-amino]-methyl}-phenyl)-propionic acid] |  | 0.02 µM
O=C1NCCCC[C@H]1N(Cc1ccc(-c2ccno2)cc1)S(=O)(=O)c1ccc(Cl)cc1 [Example 208, 4-Chloro-N-(4-isoxazol-5-yl-benzyl)-N-((R)-2-oxo-azepan-3-yl)-benzenesulfonamide] |  | 0.22 µM
COc1ccc(CN([C@@H]2CCCCNC2=O)S(=O)(=O)c2ccc(Cl)cc2)c(F)c1F [Example 211, 4-Chloro-N-(2,3-difluoro-4-methoxy-benzyl)-N-((R)-2-oxo-azepan-3-yl)-benzenesulfonamide] |  | 0.05 µM
CC(C)(CC(=O)O)c1ccc(CN([C@@H]2CCCCNC2=O)S(=O)(=O)c2ccc(Cl)cc2)cc1 [Example 218, 3-(4-{[(4-Chloro-benzenesulfonyl)-((R)-2-oxo-azepan-3-yl)-amino]-methyl}-phenyl)-3-methyl-butyric acid] |  | 0.21 µM
CC(C)(Cc1ccc(CN([C@@H]2CCCCNC2=O)S(=O)(=O)c2ccc(Cl)cc2)cc1)C(=O)O [Example 219, 3-(4-{[(4-Chloro-benzenesulfonyl)-((R)-2-oxo-azepan-3-yl)-amino]-methyl}-phenyl)-2,2-dimethyl-propionic acid] |  | 0.23 µM
